The values below come from publication PMC10627047, “Flavone-based dual PARP-Tubulin inhibitor manifesting efficacy against endometrial cancer” (Journal of Enzyme Inhibition and Medicinal Chemistry, 2023).

Common to all, as to format: cell-based, human
The test system of assay [1] is Ishikawa cells. Briefly: Nuclear and cellular morphology (DAPI staining), apoptosis. The settings on record: Ishikawa cells, 0.1, 0.5 and 1 μM, 24 h. The method, then:
Ishikawa cell lines were treated with compound 14 at concentrations of 0.1, 0.5, and 1 μM for 24 h. Cellular morphology was observed by an inverted microscope. DAPI staining was done to monitor the nuclear morphology. […] Thus, the results were indicative of the apoptosis-inducing ability of compound 14 (Figure 9).
Ishikawa was treated with compounds 14 at concentrations of 0.1, 0.5, and 1 μM for 24 h. Briefly, cells were collected, washed twice with PBS, and fixed with methanol: acetic acid (3:1 ratio v/v). The next day, cells were washed and dispensed in 50 μL of fixing solution. Cells were then spread on clean slides, and exposed to DAPI solution (4′,6-diamidino-2-phenylindole(DAPI) (CAS Number: 28718–90-3) (5 μg/mL in 0.01 M citric acid and 0.45 M disodium phosphate containing 0.05% Tween 20) for 30 min at room temperature. The slides were then rinsed with distilled water for 10 min, and washed with PBS. After drying, the slides were mounted with glycerol: PBS (1:1 ratio v/v) and observed under the fluorescent microscope to figure out any nuclear morphological changes that occur during apoptosis.[60]

In assay [2] the test system is Ishikawa cells. Briefly: Mitochondrial membrane potential (rhodamine 123 staining). The following applies: Ishikawa cells, 0.1, 0.5 and 1 μM, 24 h. The method, then:
Mitochondrial membrane potential was measured by rhodamine-123 (RH-123) staining. Ishikawa cells were treated at 0.1, 0.5, and 1 μM of compound 14. Rhodamine dyes accumulate within active and polarised mitochondria under physiological conditions, resulting in robust fluorescence signals. A decline in rhodamine fluorescence intensity is observed when the dyes fail to accumulate within the mitochondria. This happens when the mitochondrial transmembrane potential is compromised. […] The decreased fluorescence patterns associated with apoptotic cell death indicate progressive dissipation of the mitochondrial transmembrane potential (Figure 12).
Rhodamine staining was employed to investigate apoptosis induced by compound 14 in Ishikawa cells. Under physiological conditions, rhodamine dyes are known to accumulate within active and polarised mitochondria, resulting in robust fluorescence signals. However, when the mitochondrial transmembrane potential is compromised the dyes fail to accumulate within the mitochondria, leading to a decline in rhodamine fluorescence intensity. The Rhodamine staining protocol followed was as follows: Ishikawa cells were treated at 0.1, 0.5, and 1 μM for 24 h, and RH-123 (1 μg) (Cat No. R8004) was added 30 min before the termination of the experiment and then washed with PBS before analysis on a fluorescence microscope.[61]

Another assay relates to LC3 in Ishikawa cells. Briefly: Western blotting, cleavage of LC-3. The following applies: Ishikawa cells, 100, 500 and 1000 nM, 24 h. Here is the method:
Literature precedents indicate that autophagy triggers the cleavage of tubulin-associated protein LC-3 yielding cytosolic LC3-I (18 kDa) and autophagosome-associated LC3-II (16 kDa).[50–58] Thus, the ability of compound 14 was evaluated to induce the cleavage of this cytosolic protein. […] Considering the aforementioned cleavage of cytosolic microtubule-associated protein light chain-3 (LC3)-I into LC3-II as an autophagy-specific marker, it was deduced that 14 is an autophagy inducer.
Ishikawa cells were treated with compound-14 at 100, 500, and 1000 nM concentrations for 24 h. After 24h cells were collected and centrifuged at 400 g, washed in PBS and cell pellets were lysed in RIPA buffer in preparation of the whole cell lysate. Supernatants were collected and proteins were estimated using the Bradford reagent. An equal amount of protein (60–80 µg) was loaded into each well for SDS-PAGE. Blocking was done with 5% BSA at room temperature with shaking for 2 h. After the SDS page run was completed, we washed the PVDF membrane and then blocking was done. Blots were incubated with different primary antibodies(1:1000 dilutions), and secondary antibodies (1:10 000 dilutions) and chemiluminescence was captured on Chemidoc after incubating the blots in ECL plus solution. […]
On the technique in general: A western blot detects proteins with antibodies after separation by electrophoresis.

The subject of assay [3] is CDK1 protein in Ishikawa cells. Briefly: Western blotting, cell cycle proteins. The settings on record: 24 h treatment. Here is the method:
Western blot analysis was performed to assess the involvement of proteins in the cell cycle arrest effects of compound 14 on Ishikawa cells.
Ishikawa cells were treated with compound-14 at 100, 500, and 1000 nM concentrations for 24 h. After 24h cells were collected and centrifuged at 400 g, washed in PBS and cell pellets were lysed in RIPA buffer in preparation of the whole cell lysate. Supernatants were collected and proteins were estimated using the Bradford reagent. An equal amount of protein (60–80 µg) was loaded into each well for SDS-PAGE. Blocking was done with 5% BSA at room temperature with shaking for 2 h. After the SDS page run was completed, we washed the PVDF membrane and then blocking was done. Blots were incubated with different primary antibodies(1:1000 dilutions), and secondary antibodies (1:10 000 dilutions) and chemiluminescence was captured on Chemidoc after incubating the blots in ECL plus solution.
Primary Antibodies: LC3B Antibody (Cell signalling Technology, Cat No:2775), Cyclin B1 (Cell signalling Technology, Cat No:4138), SKP-2 (Cell signalling Technology, Cat No:4358), CDK1 (Abcam, Anti-CDK1 antibody [A17]), cdc25c (Cell signalling Technology, Cat No:4688); internal control: Actin (Sigma Aldrich, Cat No: A5441);

Turning to `O=c1cc(-c2ccc(F)cc2)oc2cc(-c3ccoc3)ccc12` [Compound 14, 2–(4-fluorophenyl)-7-(furan-3-yl)-4H-chromen-4-one], the “Apoptosis induction (nuclear morphology, DAPI staining)” value with Ishikawa cells [1] was “concentration-dependent increase in the number of scattered apoptotic bodies”. The “Mitochondrial membrane potential (rhodamine 123 fluorescence)” value in the assay with Ishikawa cells [2] is recorded as “reduction in rhodamine fluorescence in a concentration-dependent manner”. Also, the “Cleavage of LC-3 (autophagy marker, western blot)” value with LC3 in Ishikawa cells was “concentration-dependent cleavage of LC3”. For the same molecule, in assay [3], the “Expression of CDK1 protein (western blot)” value is “downregulated the expression of CDK1 protein”.
